The text below walks through data of patent US10695321B2, “Use of glycopyrrolate for treating tachycardia” (Heptares Therapeutics Limited, priority 2011, dated 2020).

The series in a line: Sealed storage of micronised glycopyrrolate batches, physical changes and repeated particle sizing. The format is physicochemical. As to conditions: sealed storage for several weeks. An excerpt: Batches of micronised glycopyrrolate were obtained and, following sealed storage for several weeks, the physical changes of the material from fine cohesive powders to solid agglomerates were observed.
The following section summarises the tests conducted on reported batches of glycopyrrolate received following micronisation: […]

As to `C[N+]1(C)CCC(OC(=O)C(O)(c2ccccc2)C2CCCC2)C1` (centres unmarked) [Batch A, glycopyrrolate], the “Physical state of powder on storage” value is listed as “soft lumps of material were found in bulk powder”.

For the compound `C[N+]1(C)CCC(OC(=O)C(O)(c2ccccc2)C2CCCC2)C1` (centres unmarked) [Batch B, glycopyrrolate], the “Physical state of powder on storage” value is given as “large hard lumps of material were found”.

With `C[N+]1(C)CCC(OC(=O)C(O)(c2ccccc2)C2CCCC2)C1` (centres unmarked) [Batch C, glycopyrrolate], the “Physical state of powder on storage” value is given as “large hard lumps of material were found in bulk powder”. For the same compound, for the setting “micronised powder”, the “d50 on repeated particle sizing on storage” value is recorded as 51 μm.

On to `C[N+]1(C)CCC(OC(=O)C(O)(c2ccccc2)C2CCCC2)C1` (centres unmarked) [Remicronised Batch C, glycopyrrolate], for which the “Physical state of powder on storage” value is “only soft lumps of material were found in bulk powder”.
